According to the NIST ThermoML archive (doi:10.1016/j.jct.2017.03.024):
Numbers after ± are expanded uncertainties.

Settings: Liquid, Closed cell (Static) method

O [water]
Settings | vapor or sublimation pressure [kPa]
298 K | 3.35 ± 2.4
313 K | 7.4 ± 2.4
323 K | 12.12 ± 2.4
328.2 K | 15.07 ± 2.4
333 K | 18.99 ± 2.4
337.5 K | 23.33 ± 2.4
